The values below come from patent publication US20070203149A1, “CCR5 ANTAGONISTS USEFUL FOR TREATING HIV” (Schering Corporation, priority 2006, published 2007).

The subject of data set [1] is primary R5 HIV 1 clinical isolates. In words: Inhibition of viral replication in human PBMCs infected with primary R5 HIV 1 clinical isolates. Type of data set: cell-based. Particulars: for IC50: Human immunodeficiency virus 1, PBMC, human PBMCs infected with primary R5 HIV 1 clinical isolates, read-out: median IC50, inhibition of viral replication. Here is the method: This assay uses primary peripheral blood mononuclear cells or the stable U87-CCR5 cell line to determine the effect of anti-CCR5 compounds to block infection of primary HIV-1 strains. The primary lymphocytes are purified from normal healthy donors and stimulated in vitro with PHA and IL-2 three days prior to infection. Using a 96-well plate format, cells are pretreated with drug for 1 hour at 37° C. and subsequently infected with an M-tropic HIV-1 isolates. Following infection, the cells are washed to remove residual inoculum and cultured in the presence of compound for 4 days. Culture supernatants are harvested and viral replication measured by determination of viral p24 antigen concentration.

A short description of data set [2]: Human rising single dose study: metabolite profiling of plasma and urine by LC-MS/MS after oral compound of formula A. Type of data set: in vivo. Here is the method:
(M5a/M5b/M5c/M5d are potential rotamers of the compound of Formula I)
In a human rising single dose study, plasma levels of the compound of formula I relative to the compound of formula A were assessed in blood samples drawn at 2, 8, and 24 hr following oral administration of the compound of formula A. An in-house metabolite profiling method using LC-MS/MS detection was employed for this assessment. Based on this qualitative assessment of the compound of formula I in human plasma, the concentrations of the compound of formula I are projected to be up to 3-fold higher than the compound of formula A in human plasma (see FIG. 5). This is considered to be a surprising and unexpected result.

For orientation: IC50 means the point on the concentration scale where inhibition reaches its midpoint. Turning to `COC[C@@H](c1ccc(C(F)(F)F)cc1)N1CCN(C2(C)CCN(C(=O)c3c(C)ncnc3C)CC2)C[C@@H]1C` [SCH-417690, reference compound], the IC50 in data set [1] was determined as 7.5 nM.

Take `Cc1ncnc(C)c1C(=O)N1CCC(C)(N2CCN([C@@H](c3cccc(F)c3)C3CCN(S(=O)(=O)C4CC4)CC3)[C@@H](C)C2)CC1` [compound of formula A, reference compound]: the IC50 in data set [1] came to 1 nM.

For `Cc1nc[n+]([O-])c(C)c1C(=O)N1CCC(C)(N2CCN([C@@H](c3cccc(F)c3)C3CCN(S(=O)(=O)C4CC4)CC3)[C@@H](C)C2)CC1` [compound of formula I], the concentration for half-maximal inhibition (IC50) in data set [1] is 8 nM. Moreover, in data set [1] (human PBMCs, primary R5 HIV 1 isolates, ratio of median IC50 values), the “in vitro potency relative to the compound of formula A” value is “approximately ⅛”. Also, the “metabolite status in human urine” value in data set [2] (0-24 hr urine, single oral 50 mg compound of Formula A, healthy male volunteers) is “significant metabolite”. In addition, the “metabolite status in clinical samples” value in data set [2] (first-in-man studies after administration of compound of formula A) is given as “major metabolite”. Also, in data set [2] (human plasma, samples at 2, 8 and 24 hr after oral compound of formula A, projected from qualitative assessment), the “plasma concentration relative to the compound of formula A” value is “up to 3 fold”. Besides, the “metabolite status in human plasma” value in data set [2] (plasma 2 hr, single oral 50 mg compound of Formula A, healthy male volunteers) is “significant metabolite”. Also, the “susceptibility to further metabolism” value in data set [2] (stated as consequence of being a major metabolite) is “less susceptible to further rapid metabolism”.
